What is called Ki is the dissociation constant of the complex between target and ligand, obtained from inhibition or displacement.

One assay has as its target T1, Rhesus PDE2A3 (Macaca mulatta, UniProt B3VTJ2).
T1 construct: made in house; host or cells: AD293 cells, transient transfection, pcDNA3.3-TOPO; lysate supernatant used as enzyme
T1 sequence (B3VTJ2 1-941): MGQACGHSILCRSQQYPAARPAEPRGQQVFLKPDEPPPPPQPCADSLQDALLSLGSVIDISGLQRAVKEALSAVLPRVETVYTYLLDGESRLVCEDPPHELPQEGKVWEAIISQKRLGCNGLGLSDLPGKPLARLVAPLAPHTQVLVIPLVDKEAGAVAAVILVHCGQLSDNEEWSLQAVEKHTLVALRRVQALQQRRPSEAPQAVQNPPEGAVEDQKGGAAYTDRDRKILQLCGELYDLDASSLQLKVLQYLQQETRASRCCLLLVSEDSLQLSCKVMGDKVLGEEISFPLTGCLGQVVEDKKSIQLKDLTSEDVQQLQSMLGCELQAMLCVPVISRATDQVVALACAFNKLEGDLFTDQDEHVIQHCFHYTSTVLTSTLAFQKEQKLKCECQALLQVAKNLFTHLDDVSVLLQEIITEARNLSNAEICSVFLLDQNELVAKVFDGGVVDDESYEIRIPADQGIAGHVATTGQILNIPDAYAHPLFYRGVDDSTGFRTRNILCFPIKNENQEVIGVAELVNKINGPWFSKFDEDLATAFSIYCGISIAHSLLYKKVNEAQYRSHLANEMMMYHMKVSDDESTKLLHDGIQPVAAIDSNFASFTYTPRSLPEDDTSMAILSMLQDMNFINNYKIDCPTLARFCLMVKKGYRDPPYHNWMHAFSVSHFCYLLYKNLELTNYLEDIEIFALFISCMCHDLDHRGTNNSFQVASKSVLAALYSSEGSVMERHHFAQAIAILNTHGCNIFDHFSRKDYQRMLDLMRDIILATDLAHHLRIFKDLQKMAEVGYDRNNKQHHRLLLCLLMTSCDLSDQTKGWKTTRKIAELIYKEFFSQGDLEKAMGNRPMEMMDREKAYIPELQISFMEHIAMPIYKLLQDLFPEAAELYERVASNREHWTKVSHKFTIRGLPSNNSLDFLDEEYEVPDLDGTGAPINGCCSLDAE
Briefly: PDE2 fluorescence polarization (IMAP FP) inhibition assay, rhesus enzyme. Format: biochemical, rhesus macaque. The following applies: Lab A; read-out: Rhesus PDE2 Ki (nM) Lab A. Here is the method:
The activity of the compounds in accordance with the present invention as PDE2 inhibitors may be readily determined using a fluorescence polarization (FP) methodology (Huang, W., et al., J. Biomol Screen, 2002, 7: 215).
In a typical experiment the PDE2 inhibitory activity of the compounds of the present invention was determined in accordance with the following experimental method. Rhesus PDE2A3 was amplified from rhesus macaque brain cDNA (Biochain Institute, Hayward, Calif.) using primers based on human PDE2A sequence (accession NM_002599.3) where the forward primer containing a Kozak consensus was 5′-[…]-3′ and the reverse primer was 5′-[…]-3′. Amplification with Easy-A High-Fidelity PCR cloning enzyme (Stratagene, La Jolla, Calif.) was 95° C. for 2 minutes followed by thirty three cycles of 95° C. for 40 seconds, 52° C. for 30 seconds, and 72° C. for 2 minutes 48 seconds. Final extension was 72° C. for 7 minutes. The PCR product was TA cloned into pcDNA3.3-TOPO (Invitrogen, Carlsbad, Calif.) according to standard protocol. A consensus sequence was developed from multiple clones and then deposited into GenBank (EU812167). AD293 cells (Stratagene, La Jolla, Calif.) with 70-80% confluency were transiently transfected with rhesus PDE2A3/pcDNA3.3-TOPO using Lipofectamine 2000 according to manufacturer specifications (Invitrogen, Carlsbad, Calif.). Cells were harvested 48 hours post-transfection and lysed by sonication (setting 3, 10×5 sec pulses) in a buffer containing 20 mM HEPES pH 7.4, 1 mM EDTA and Complete Protease Inhibitor Cocktail Tablets (Roche, Indianapolis, Ind.). Lysate was collected by centrifugation at 75,000×g for 20 minutes at 4° C. and supernatant utilized for evaluation of PDE2 activity. The fluorescence polarization assay for cyclic nucleotide phosphodiesterases was performed using an IMAP® FP kit supplied by Molecular Devices, Sunnyvale, Calif. (product # R8139). […] Assays were performed at room temperature in 384-well microtiter plates with an incubation volume of 20.2 μL. Solutions of test compounds were prepared in DMSO and serially diluted with DMSO to yield 8 μL of each of 10 solutions differing by 3-fold in concentration, at 32 serial dilutions per plate. […] 0% of inhibition is determined by using DMSO (1% final concentrations).
A Labcyte Echo 555 (Labcyte, Sunnyvale, Calif.) is used to dispense 200 nL from each well of the titration plate to the 384 well assay plate. Ten microliters of a solution of enzyme (1/2000 final dilution from aliquots; sufficient to produce 20% substrate conversion) was added to the assay plate. Next 10 uL of a separate solution of the substrate FAM-labeled cAMP (50 nM final concentration product # R7506 from Molecular Devices) and the activator cGMP (1 uM final concentration), prepared in the assay buffer (10 mM Tris HCl, pH 7.2, 10 mM MgCl2, 0.05% NaN3 0.01% Tween-20, and 1 mM DTT) was added to the assay plate and shaken to mix. The reaction is allowed to proceed at room temperature for 60 minutes. A binding solution is then made from the kit components, comprised of 80% Solution A, 20% Solution B and binding reagent at a volume of 1/600 the total binding solution. The enzymatic reaction is stopped by addition of 60 μl, of the binding solution to each well of the assay plates and the plates are sealed and shaken for 30 seconds. The plate was incubated at room temperature for at least one hour prior to determining the fluorescence polarization (FP). The parallel and perpendicular fluorescence of each well of the plate was measured using a Tecan Genios Pro plate reader (Tecan, Switzerland) or Perkin Elmer EnVision™ plate reader (Waltham, Mass.). Fluorescence polarization (mP) was calculated from the parallel (S) and perpendicular (P) fluorescence of each sample well and the analogous values for the median control well, containing only substrate (So and Po), using the following equation: Polarization (mP)=1000*(S/So−P/Po)/(S/So+P/Po).
As for `COCc1ccc(C(C)n2cc(-c3cc(=O)[nH]c(C)n3)cn2)c(F)c1` (single isomer, unassigned) [Example 98, (S)- or (R)-6-(1-(1-(2-fluoro-4-(methoxymethyl)phenyl)ethyl)-1H-pyrazol-4-yl)-2-methylpyrimidin-4(3H)-one], the Ki was greater than 2970 nM. Turning to `CCc1ccc(C(C)n2cc(-c3cc(=O)[nH]c(C)n3)cn2)c(Cl)c1` (single isomer, unassigned) [Example 100, (S)- or (R)-6-(1-(1-(2-chloro-4-ethylphenyl)ethyl)-1H-pyrazol-4-yl)-2-methylpyrimidin-4(3H)-one], the inhibition constant (Ki) was determined as 384 nM.

On to `CCc1ccc(C(C)n2cc(-c3cc(=O)[nH]c(C)n3)cn2)c(F)c1` (single isomer, unassigned) [Example 102, (S)- or (R)-6-(1-(1-(4-ethyl-2-fluorophenyl)ethyl)-1H-pyrazol-4-yl)-2-methylpyrimidin-4(3H)-one], for which the inhibition constant (Ki) came out at 212 nM. As to `COCc1ccc(C(C)n2cc(-c3cc(=O)[nH]c(C)n3)cn2)c(Cl)c1` (single isomer, unassigned) [Example 103, (R)- or (S)-6-(1-(1-(2-chloro-4-(methoxymethyl)phenyl)ethyl)-1H-pyrazol-4-yl)-2-methylpyrimidin-4(3H)-one], the Ki came to 106 nM.

As for `COCc1ccc(C(C)n2cc(-c3cc(=O)[nH]c(C)n3)cn2)c(Cl)c1` (single isomer, unassigned) [Example 104, (S)- or (R)-6-(1-(1-(2-chloro-4-(methoxymethyl)phenyl)ethyl)-1H-pyrazol-4-yl)-2-methylpyrimidin-4(3H)-one], the Ki is greater than 2970 nM. As for `Cc1nc(-c2cnn(C(C)c3ccc(C(F)(F)F)cc3C(F)(F)F)c2)cc(=O)[nH]1` (single isomer, unassigned) [Example 144, (R)- or (S)-6-(1-(1-(2,4-bis(trifluoromethyl)phenyl)ethyl)-1H-pyrazol-4-yl)-2-methylpyrimidin-4(3H)-one], the inhibition constant Ki is 397 nM. Regarding `Cc1nc(-c2cnn(C(C)c3ccc(C(F)(F)F)cc3C(F)(F)F)c2)cc(=O)[nH]1` (single isomer, unassigned) [Example 145, (S)- or (R)-6-(1-(1-(2,4-bis(trifluoromethyl)phenyl)ethyl)-1H-pyrazol-4-yl)-2-methylpyrimidin-4(3H)-one], the inhibition constant (Ki) was 6810 nM. Still for that read-out and setting: the value for `Cc1ccc(C(C)n2cc(-c3cc(=O)[nH]c(C)n3)cn2)c(Cl)c1` (single isomer, unassigned) [Example 149, (S)- or (R)-6-(1-(1-(2-chloro-4-methylphenyl)ethyl)-1H-pyrazol-4-yl)-2-methylpyrimidin-4(3H)-one] was 954 nM. Still for that read-out and setting: the value for `Cc1ccc(C(C)n2cc(-c3cc(=O)[nH]c(C)n3)cn2)c(F)c1` (single isomer, unassigned) [Example 150, (R)- or (S)-6-(1-(1-(2-fluoro-4-methylphenyl)ethyl)-1H-pyrazol-4-yl)-2-methylpyrimidin-4(3H)-one] was 695 nM; that for `Cc1ccc(C(C)n2cc(-c3cc(=O)[nH]c(C)n3)cn2)c(F)c1` (single isomer, unassigned) [Example 151, (S)- or (R)-6-(1-(1-(2-fluoro-4-methylphenyl)ethyl)-1H-pyrazol-4-yl)-2-methylpyrimidin-4(3H)-one] was 218 nM; that for `Cc1nc(-n2cc(CN3CCC(C(F)(F)F)CC3)cn2)cc(=O)[nH]1` [Example 32, 2-Methyl-6-(4-((4-(trifluoromethyl)piperidin-1-yl)methyl)-1H-pyrazol-1-yl)pyrimidin-4(3H)-one] was 19300 nM.

Still in this assay, the particulars now being: Lab B; read-out: Rhesus PDE2 Ki (nM) Lab B.
`Cc1nc(-c2cnn(C(C)c3ccc(OC(F)(F)F)cc3)c2)cc(=O)[nH]1` (single isomer, unassigned) [Example 128, (S)- or (R)-2-methyl-6-(1-(1-(4-(trifluoromethoxy)phenyl)ethyl)-1H-pyrazol-4-yl)pyrimidin-4(3H)-one]: the Ki turned out to be 588 nM.

For `Cc1nc(-c2cc(C(C)c3ccc(C(F)(F)F)cc3)nn2C)cc(=O)[nH]1` (single isomer, unassigned) [Example 131, (R)- or (S)-2-methyl-6-(1-methyl-3-(1-(4-(trifluoromethyl)phenyl)ethyl)-1H-pyrazol-5-yl)pyrimidin-4(3H)-one], the inhibition constant Ki was greater than 1000 nM.

Turning to `Cc1nc(-c2cc(C(C)c3ccc(C(F)(F)F)cc3)nn2C)cc(=O)[nH]1` (single isomer, unassigned) [Example 132, (S)- or (R)-2-methyl-6-(1-methyl-3-(1-(4-(trifluoromethyl)phenyl)ethyl)-1H-pyrazol-5-yl)pyrimidin-4(3H)-one], the inhibition constant (Ki) was greater than 1000 nM. Consider `CNC(c1ccc(C(F)(F)F)cc1)c1cnn(-c2cc(=O)[nH]c(C)n2)c1` (centres unmarked) [Example 31, 2-Methyl-6-(4-((methylamino)(4-(trifluoromethyl)phenyl)methyl)-1H-pyrazol-1-yl)pyrimidin-4(3H)-one], for which the Ki was 488 nM. On the same count and under the same terms, as for `Cc1nc(-n2cc(CN3CCC(C(F)(F)F)CC3)cn2)cc(=O)[nH]1` [Example 32, 2-Methyl-6-(4-((4-(trifluoromethyl)piperidin-1-yl)methyl)-1H-pyrazol-1-yl)pyrimidin-4(3H)-one], the figure is 49300 nM. Turning to `Cc1nc(-n2cc(C(C)c3ccc(C4CCC4)cc3)cn2)cc(=O)[nH]1` (centres unmarked) [Example 38, 6-(4-(1-(4-cyclobutylphenyl)ethyl)-1H-pyrazol-1-yl)-2-methylpyrimidin-4(3H)-one], the inhibition constant (Ki) worked out at 303 nM.

In the case of `COCCc1ccc(C(C)c2cnn(-c3cc(=O)[nH]c(C)n3)c2)cc1` (centres unmarked) [Example 41, 6-(4-(1-(4-(2-methoxyethyl)phenyl)ethyl)-1H-pyrazol-1-yl)-2-methylpyrimidin-4(3H)-one], the inhibition constant Ki turned out to be 7300 nM. `Cc1nc(-n2cc(C(C)c3ccc4c(c3)CCOC4)cn2)cc(=O)[nH]1` (centres unmarked) [Example 42, 6-(4-(1-(isochroman-6-yl)ethyl)-1H-pyrazol-1-yl)-2-methylpyrimidin-4(3H)-one]: the Ki turned out to be 2620 nM. Same read-out and setting: the value for `CCCc1ccc(C(C)c2cnn(-c3cc(=O)[nH]c(C)n3)c2)cc1` (centres unmarked) [Example 43, 2-methyl-6-(4-(1-(4-propylphenyl)ethyl)-1H-pyrazol-1-yl)pyrimidin-4(3H)-one] was 313 nM.

For the origin of these results see patent US10287269B2, “Pyrazolyl pyrimidinone compounds as PDE2 inhibitors” (Merck Sharp & Dohme Corp., priority 2015, dated 2019).
